Values after ≈ are worked out from the molar mass of the structure shown. Like-named read-outs stand apart in the source and are kept apart here.
Assays:
[1] = mice, intravenous injection; cited from earlier work
[2] = test system: Candida albicans; test: Disk diffusion susceptibility testing; type: cell-based; settings: ATCC 90028
Description: (§1) Antimicrobial activity was assayed by disk susceptibility tests according to the NCCLS (National Committee for Clinical Laboratory Standards, Performance Standards for Antimicrobial Disk Susceptibility Tests-Sixth Edition: Approved standard M2-A6, NCCLS, Wayne, Pa., 1997). Inocula were adjusted to a density of 0.10 at 625 nm in SDA broth, and spread on SDA plates. Excess moisture was allowed to absorb for 10 min before applying dried disks containing two-fold dilutions of the drugs. Test plates were incubated at 35° C. (25° C. for C. albidus and C. laurentii), and zones of inhibition recorded after 48 h. The minimum inhibitory concentration (MIC) was defined as the lowest concentration of drug resulting in a clear zone of growth inhibition. Disk susceptibility testing of Staphylococcus aureus, Enterococcus faecalis, Escherichia coli and Neisseria gonorrhoeae was also performed.

[3] = test system: Candida glabrata; test: Disk diffusion susceptibility testing; type: cell-based; settings: ATCC 90030
Description: as §1

[4] = test system: Cryptococcus albidus; test: Disk diffusion susceptibility testing; type: cell-based; settings: ATCC 66030
Description: as §1

[5] = test system: Cryptococcus neoformans; test: Disk diffusion susceptibility testing; type: cell-based; settings: ATCC 90112
Description: as §1

[6] = test system: Cryptococcus laurentii; test: Disk diffusion susceptibility testing; type: cell-based; settings: ATCC 66036
Description: as §1

[7] = test system: Aspergillus fumigatus; test: Broth macrodilution susceptibility testing of filamentous fungi; type: cell-based; settings: ATCC 96918
Description: (§2) Broth macrodilution susceptibility testing of Aspergillus fumigatus and Rhizopus oligosporus was performed according to a proposed standardized procedure (Espinel-Ingroff et al., Multicenter evaluation of a proposed standardized procedure for antifungal susceptibility testing of filamentous fungi, J Clin Microbiol 1997, 35: 139-43) with slight modification. To induce conidium and sporangiospore formation, A. fumigatus and R. oligosporus were grown on PDA slants at 35° C. for 6 days. Fungal slants were covered with 1 ml of sterile 0.85% NaCl, and suspensions made by gently probing the colonies with the tip of a sterile pasteur pipette. The resulting mixture of hyphal fragments and conidia or sporangiospores was withdrawn, transferred to a sterile clear microfuge tube, and heavy particles were allowed to settle for 10 min. […] Susceptibility to the synthetic peptides was then determined by broth macrodilution assays as described above for the yeast cultures. MICs for the filamentous fungi were read after 24 h.
(§3) Minimum fungicidal concentrations (MFCs) were determined by subculturing 0.1 ml from each tube with no visible growth in the MIC broth macrodilution series onto drug-free SDA plates. […]

[8] = test system: Rhizopus oligosporus; test: as above; type: cell-based; settings: ATCC 22959
Description: as §2, §3

[9] = test system: fluconazole-resistant Cryptococcus neoformans; type: cell-based
Description: (§4) Clinical isolates of C. neoformans were obtained from patient cerebrospinal fluid, blood, bone marrow, sputum, bronchial lavage and wound infections at the University of Virginia Medical Center, Strains clinically resistant to fluconazole (See: Jessup, C. J. et al, 1997; Poster #F-88, 37th ICAAC, Toronto, Canada) were provided by the Center for Medical Mycology, Case Western Reserve University. Yeast strains (except for C. albidus and C. laurentii) were maintained by single colony transfer on Sabouraud Dextrose Agar (SDA), pH 5.6 at 35° C. Cryptococcus albidus, C. laurentii and C. uniguttulatus (#66033) were maintained on SDA, pH 6.6 at 25° C., C. uniguttulatus (#34143) and C. ater on Yeast Morphology (YM) agar at 25° C. and filamentous fungi were maintained on Potato Dextrose Agar (PDA) slants at 35° C.
(§5) Dolastatin 10 and modifications were screened against yeasts by the broth macrodilution assay according to the NCCLS (National Committee for Clinical Laboratory Standards, Reference Method for Broth Dilution Antifungal Susceptibility Testing of Yeasts: Approved Standard M27-A, NCCLS, Wayne, Pa., 1997). Yeasts were suspended and diluted as recommended to yield final inocula ranging from 0.5-2.5×10^3 colony forming units (CFU)/ml. Tests were performed in sterile 12×75 mm plastic tubes containing two-fold dilutions of the peptides in 0.165 M morpholinepropanesulfonic acid (MOPS)-buffered RPMI 1640 medium (pH 7.0). One tube was left drug-free for a turbidity control. Tubes were incubated without agitation at 35° C. (25° C. for C. albidus and C. laurentii). MICs were determined after 72 h for Cryptococcus, and after
(§6) 48 h for other yeast genera. The MIC was defined as the lowest concentration of compound that inhibited all visible growth of the test organism.
(§7) Minimum fungicidal concentrations (MFCs) were determined by subculturing 0.1 ml from each tube with no visible growth in the MIC broth macrodilution series onto drug-free SDA plates. The plates were incubated at 35° C. for 48 h for Cryptococcus (25° C. for C. alhidus and C. laurentii), and 35° C. for 24 h for all other yeast and filamentous fungi.

[10] = test system: Cryptococcus neoformans; test: Broth macrodilution assay (MIC, MFC), ATCC strains; type: cell-based; settings: for MFC relative to MIC: C. neoformans #14116
Description: as §5, §6, §7

[11] = mouse plasma, 37° C.; cited from earlier work
[12] = test system: Candida albicans; test: Broth macrodilution assay; type: cell-based; settings: ATCC 90028
Description: as §5, §6, §7

[13] = test system: Candida lusitaniae; test: Broth macrodilution assay; type: cell-based; settings: ATCC 42720
Description: as §5, §6, §7

[14] = test system: Rhodotorula mucilaginosa; test: Broth macrodilution assay; type: cell-based; settings: ATCC 9449
Description: as §5, §6, §7

[15] = test system: Candida glabrata; test: Broth macrodilution assay; type: cell-based; settings: ATCC 90030
Description: as §5, §6, §7

[16] = test system: Cryptococcus albidus; test: Broth macrodilution assay; type: cell-based
Description: as §5, §6, §7

[17] = test system: Cryptococcus ater; test: Broth macrodilution assay; type: cell-based; settings: ATCC 14247
Description: as §5, §6, §7

[18] = test system: Cryptococcus laurentii; test: Broth macrodilution assay; type: cell-based
Description: as §5, §6, §7

[19] = test system: Candida parapsilosis; test: Broth macrodilution assay; type: cell-based; settings: ATCC 22019
Description: as §5, §6, §7

[20] = test system: Cryptococcus uniguttulatus; test: Broth macrodilution assay; type: cell-based
Description: as §5, §6, §7

[21] = dog plasma, 37° C.; cited from earlier work
[22] = cited from earlier work
[23] = test system: Cryptococcus neoformans #90112; test: Effect of host factors (pH, human serum) on broth macrodilution MICs and MFCs; type: cell-based
Description: as §5, §6, §7
Broth macrodilution assays were performed with RPMI prepared at pH 5, pH 6 and pH 7, and in RPMI, with and without 50% normal human serum (Lampire Biological Labs). Cryptococcus neoformans #90112 was used in each case.

[24] = human plasma, 37° C.; cited from earlier work
[25] = test system: clinical isolates of C. neoformans; test: Broth macrodilution (MIC, MFC), 19 clinical isolates; type: cell-based, Cryptococcus neoformans
Description: as §4, §5, §6, §7

[26] = test system: C. neoformans (#90112); test: Killing kinetics; type: cell-based, Cryptococcus neoformans; settings: 1x, 4x, 8x MIC, FIG. 2
Description: Overnight cultures of C. neoformans (#90112) in Ph 7.0 MOPS-buffered RPMI 1640 medium were inoculated into the same medium containing multiples of the broth macrodilution MIC of the antifungal peptides, or an equivalent volume of DMSO. Cultures were shaken at 35° C., and aliquots aseptically removed at various times for dilution plating.

SMILES: CC[C@H](C)[C@@H]([C@@H](CC(=O)N1CCC[C@H]1[C@H](OC)[C@@H](C)C(=O)N[C@@H](Cc1ccccc1)c1nccs1)OC)N(C)C(=O)[C@@H](NC(=O)[C@H](C(C)C)N(C)C)C(C)C [1a, dolastatin 10]
- estimated elimination half-life [1]: 5.6 h
- MIC [2]: >100 μg/disk
- MIC [3]: >100 μg/disk
- MIC [4]: >100 μg/disk
- MIC [5]: 25-50 μg/disk
- MIC [6]: >100 μg/disk
- MIC [7]: >50 µg/mL
- MIC [8]: >50 µg/mL
- MFC ([9]; strain 94-2011): 1.56 µg/mL (≈ 1.99 µM)
- MIC ([9]; strain 94-2011): 0.78 µg/mL (≈ 0.993 µM)
- MFC ([9]; strain 94-2406): 0.0975 µg/mL (≈ 0.124 µM)
- MIC ([9]; strain 94-2406): 0.0487 µg/mL (≈ 0.062 µM)
- MFC ([9]; strain 94-2483): 0.39 µg/mL (≈ 0.497 µM)
- MIC ([9]; strain 94-2483): 0.195 µg/mL (≈ 0.248 µM)
- MFC ([9]; strain 95-2792): 3.12 µg/mL (≈ 3.97 µM)
- MIC ([9]; strain 95-2792): 0.78 µg/mL (≈ 0.993 µM)
- MFC ([10]; ATCC 14116): 6.25 µg/mL (≈ 7.96 µM)
- MIC ([10]; ATCC 14116): 3.12 µg/mL (≈ 3.97 µM)
- MFC ([10]; ATCC 32045): 1.56 µg/mL (≈ 1.99 µM)
- MIC ([10]; ATCC 32045): 0.78 µg/mL (≈ 0.993 µM)
- MFC ([10]; ATCC 66031): 1.56 µg/mL (≈ 1.99 µM)
- MIC ([10]; ATCC 66031): 0.78 µg/mL (≈ 0.993 µM)
- MFC ([10]; ATCC 90112): 1.56 µg/mL (≈ 1.99 µM)
- MIC ([10]; ATCC 90112): 0.78 µg/mL (≈ 0.993 µM)
- stable in plasma [11]: at least 24 h
- MFC [12]: >25 µg/mL
- MIC [12]: >50 µg/mL
- MIC [13]: >50 µg/mL
- MIC [14]: >50 µg/mL
- MFC [15]: >50 µg/mL
- MIC [15]: >50 µg/mL
- MIC ([16]; ATCC 10666): >50 µg/mL
- MIC ([16]; ATCC 34140): >50 µg/mL
- MIC ([16]; ATCC 66030): >50 µg/mL
- MIC [17]: >50 µg/mL
- MIC ([18]; ATCC 18803): >50 µg/mL
- MIC ([18]; ATCC 34142): >50 µg/mL
- MIC ([18]; ATCC 66036): >50 µg/mL
- MIC [19]: >50 µg/mL
- MIC ([20]; ATCC 34143): >50 µg/mL
- MIC ([20]; ATCC 66033): >50 µg/mL
- stable in plasma [21]: at least 24 h
- toxicity in patients with advanced solid tumors ([22]; doses up to 200 μg/m^2): minimal toxicity
- toxicity in human cancer clinical trials ([22]; doses up to 455 μg/m^2): minimal toxicity
- MFC ([23]; 50% human serum): 1.56 µg/mL (≈ 1.99 µM)
- MIC ([23]; 50% human serum): 0.78 µg/mL (≈ 0.993 µM)
- MFC ([23]; RPMI pH 5): >50 µg/mL
- MIC ([23]; RPMI pH 5): >50 µg/mL
- MFC ([23]; RPMI pH 6): 25 µg/mL (≈ 31.8 µM)
- MIC ([23]; RPMI pH 6): 6.25 µg/mL (≈ 7.96 µM)
- MFC ([23]; RPMI pH 7): 1.56 µg/mL (≈ 1.99 µM)
- MIC ([23]; RPMI pH 7): 0.78 µg/mL (≈ 0.993 µM)
- MFC ([23]; no serum): 1.56 µg/mL (≈ 1.99 µM)
- MIC ([23]; no serum): 0.78 µg/mL (≈ 0.993 µM)
- stable in plasma [24]: at least 24 h

SMILES: CCC(C)C(C(CC(=O)N1CCC[C@H]1C(OC)C(C)C(=O)NC(Cc1ccccc1)C(=O)Nc1nnc(-c2ccccc2)s1)OC)N(C)C(=O)[C@@H](NC(=O)[C@H](C(C)C)N(C)C)C(C)C (stereo partly shown) [1b]
- MIC [2]: >100 μg/disk
- MIC [3]: >100 μg/disk
- MIC [4]: >100 μg/disk
- MIC [5]: 3.12-6.25 μg/disk
- MIC [6]: >100 μg/disk
- MFC relative to MIC [10]: sixteenfold greater than MICs

SMILES: CCC(C)C(C(CC(=O)N1CCC[C@H]1C(OC)C(C)C(=O)NC(Cc1ccccc1)C(=O)Nc1nc(SC)ns1)OC)N(C)C(=O)[C@@H](NC(=O)[C@H](C(C)C)N(C)C)C(C)C (stereo partly shown) [1c]
- MIC [2]: >100 μg/disk
- MIC [3]: >100 μg/disk
- MIC [5]: 1.56-3.12 μg/disk
- MFC relative to MIC [10]: sixteenfold greater than MICs

SMILES: CCC(C)C(C(CC(=O)N1CCC[C@H]1C(OC)C(C)C(=O)NC(Cc1ccccc1)C(=O)OC)OC)N(C)C(=O)[C@@H](NC(=O)[C@H](C(C)C)N(C)C)C(C)C (stereo partly shown) [1d]
- MIC [2]: >100 μg/disk
- MIC [4]: >100 μg/disk
- MIC [5]: 3.12-6.25 μg/disk
- MIC [6]: >100 μg/disk
- MFC50 ([25]; 19 clinical isolates): 0.39 µg/mL (≈ 0.513 µM)
- MFC90 ([25]; 19 clinical isolates): 0.78 µg/mL (≈ 1.03 µM)
- MIC50 (MIC at which 50% of the isolates were inhibited) ([25]; 19 clinical isolates): 0.195 µg/mL
- MIC90 (MIC at which 90% of the isolates were inhibited) ([25]; 19 clinical isolates): 0.39 µg/mL
- clinical isolate MFCs, range ([25]; 19 clinical isolates): 0.0975 to 6.24 µg/mL
- share of clinical isolates with MFC/MIC ratio equal to 4 ([25]; 19 clinical isolates): 26%
- share of clinical isolates with MFC/MIC ratio less than or equal to 2 ([25]; 19 clinical isolates): more than 68%
- resistant clinical isolates ([25]; 19 clinical isolates (not fluconazole-resistant strains)): No resistant clinical isolates were found
- recovery: MFCs after the recommended incubation period compared with one week later ([25]; clinical isolates): no evidence of recovery
- fungicidal action, reductions in CFUs [26]: most dramatic reductions in CFUs
- effect of lowered pH on anticryptococcal activity ([23]; acidified RPMI): least affected by lowered pH

SMILES: CCC(C)C(C(CC(=O)N1CCC[C@H]1C(OC)C(C)C(=O)NC(CCSC)C(=O)Nc1cnc2ccccc2c1)OC)N(C)C(=O)[C@@H](NC(=O)[C@H](C(C)C)N(C)C)C(C)C (stereo partly shown) [1e]
- MIC [2]: >100 μg/disk
- MIC [5]: 25-50 μg/disk

Reference: patent US6620911B1, “Anti-cryptococcal peptides” (Arizona Board of Regents, acting for and on behalf of …, priority 1998, dated 2003)
